Counter-ions that a name gives are not always drawn.
What was measured:
[1] = pKa determination (Sirius GLpKa); assay type: physicochemical
Description: The Sirius GLpKa instrument is used to determine the pKa and Log P. A blank standardization has to be completed first and passed in order to conduct the compound experiments. The solutions used by the instrument for the blank titration include water, a pH solution, and a surfactant (TRITON X-100). The TRITON X-100 was purchased commercially from Sirus. The 0.5% solution of TRITON X-100 was used in the experiment. In a 1 L volumetric flask 5 mls of TRITON X-100 is added and MILLI Q water to volume. The vessels used by the instrument were filled to ⅓ of their volume with each solution. Therefore the assay tray contains one vessel for water, pH solution, and surfactant for the blank run. The temperature of the water bath for the instrument is 25° C. The blank is calculated as an average of three “good” experiments. The “good” was denoted by a green check mark next to the assay number in the computer software. Once the blank was run successfully the instrument was ready to conduct the experiments.
The pKa has to be determined first in order to calculate the Log P. The API is used to determine the pKa needed for the Log P experiment followed by the conjugates. The base compound was first weighed into a vessel. The amount weighed for each sample was 10% of the molecular weight of the compound. The same procedure was followed for each conjugate. The vessels were placed in the assay tray of the instrument. A method had to be set up for the pKa run. The experimental parameters are entered into the computer software. These included sample weight, molecular weight, assay type (aqueous pKa), number of assays (three), and titration range (generally 3.5-12). The run was started. There are three measurements for each run that are averaged to obtain the final results from the data points collected in the calculation software. All runs were denoted as “good” by the green check mark next to the assay number.

[2] = Log P determination (Sirius GLpKa); assay type: physicochemical
Description: The Sirius GLpKa instrument is used to determine the pKa and Log P. A blank standardization has to be completed first and passed in order to conduct the compound experiments. The solutions used by the instrument for the blank titration include water, a pH solution, and a surfactant (TRITON X-100). The TRITON X-100 was purchased commercially from Sirus. The 0.5% solution of TRITON X-100 was used in the experiment. In a 1 L volumetric flask 5 mls of TRITON X-100 is added and MILLI Q water to volume. The vessels used by the instrument were filled to ⅓ of their volume with each solution. Therefore the assay tray contains one vessel for water, pH solution, and surfactant for the blank run. The temperature of the water bath for the instrument is 25° C. The blank is calculated as an average of three “good” experiments. The “good” was denoted by a green check mark next to the assay number in the computer software. Once the blank was run successfully the instrument was ready to conduct the experiments. An additional method has to be set up for the Log P determinations for each compound. The conjugates are weighed into vessels in the same manner as for the previous experiment, i.e., 10% of the molecular weight. The vessels are placed in the assay tray of the instrument. The experimental parameters are entered into the computer. These included sample weight, molecular weight, assay type (Partition Log P), number of assays (three), and pKa value of the parent drug from the previous experiment. The run was started. There are three measurements for each run that are averaged to obtain the final results from the data points collected in the calculation software. All runs were denoted as “good” by the green check mark next to the assay number.

[3] = Toxicity XTT in CEM-SS cells (cytoprotection assay); assay type: cell-based; settings: human, CEM-SS TC50
Description: (§1) Cell Preparation—CEM-SS cells were passaged in T-75 flasks prior to use in the antiviral assay. On the day preceding the assay, the cells were split 1:2 to assure they were in an exponential growth phase at the time of infection. Total cell and viability quantification was performed using a hemocytometer and Trypan Blue dye exclusion. Cell viability was greater than 95% for the cells to be utilized in the assay. The cells were resuspended at 5×10^4 cells per ml in tissue culture medium and added to the drug containing microtiter plates in a volume of 50 μL.
(§2) Plate Format—Each plate contains cell control wells (cells only), virus control wells (cells plus virus), drug toxicity wells (cells plus drug only), drug colorimetric control wells (drug only) as well as experimental wells (drug plus cells plus virus). Samples were tested in triplicate with eleven half-log dilutions per compound.
(§3) Efficacy and Toxicity XTT—Following incubation at 37° C. in a 5% CO2 incubator, the test plates were stained with the tetrazolium dye XTT (2,3-bis(2-methoxy-4-nitro-5-sulfophenyl)-5-[(phenylamino)carbonyl]-2H-tetrazolium hydroxide). XTT-tetrazolium is metabolized by the mitochondrial enzymes of metabolically active cells to a soluble formazan product, allowing rapid quantitative analysis of the inhibition of HIV induced cell killing by anti-HIV test substances. XTT solution was prepared daily as a stock of 1 mg/mL in RPMI1640. Phenazine methosulfate (PMS) solution was prepared at 0.15 mg/mL in PBS and stored in the dark at −20° C. XTT/PMS stock was prepared immediately before use by adding 40 μL of PMS per ml of XTT solution. Fifty microliters of XTT/PMS was added to each well of the plate and the plate was re-incubated for 4 hours at 37° C. Plates were sealed with adhesive plate sealers and shaken gently or inverted several times to mix the soluble fosmazan product and the plate was read spectrophotometrically at 450/650 nm with a Molecular Devices Vmax plate reader.
(§4) Data Analysis—Raw data was collected from the Softmax Pro 4.6 software and imported into a Excel XLFit4 spreadsheet for analysis by four parameter curve fit calculations. Both antiviral activity and toxicity are calculated.

CEM-SS cells = experiment: as above; assay type: cell-based; settings: human
Description: as §1, §2, §3, §4

in vitro = in vitro ADME; settings: human
Description: (§5) Each determination was performed in duplicate.
(§6) Vr is the volume of the receiver compartment in cm^3.
(§7) Vd is the volume of the donor compartment in cm^3.
(§8) A is the area of the cell monolayer (1.13 cm^2 for 12-well Transwell®).
(§9) CN is the nominal dosing concentration of the dosing solution in μM.
(§10) CA is the average of the nominal dosing concentration and the measured 120 minute donor concentration in μM.
(§11) Cr^final is the receiver concentration in μM at the end of the incubation period.
(§12) Cd^final is the concentration of the donor in μM at the end of the incubation period.

Caco-2 monolayers = experiment: in vitro; assay type: in vitro ADME; settings: human, Caco-2, 2 h, 10 μM, pH 7.4
Description: as §5, §6, §7, §8, §9, §10, §11, §12

CC(C)Nc1cccnc1N1CCN(C(=O)c2cc3cc(NS(C)(=O)=O)ccc3[nH]2)CC1 [Delavirdine Mesylate, reference compound]
pKa1 [1]: 4.323
pKa2 [1]: 9.272
logP [2]: 3.5
CC50 [3]: 27.2 µM
CC50 (CEM-SS cells): 52.4 µM
Papp A→B at 2 hours, 10 μM (in vitro; Caco-2, pH 7.4, Average Papp, A→B): 9.87 ×10⁻⁶ cm/s
Papp B→A at 2 hours, 10 μM (in vitro; Caco-2, pH 7.4, Average Papp, B→A): 67.9 ×10⁻⁶ cm/s
recovery at 2 h, 10 μM (in vitro; Caco-2, pH 7.4, Recovery (%) A→B): 65%
Recovery (%) A→B (Caco-2 monolayers): 82%
Recovery (%) B→A (Caco-2 monolayers): 86%

Reference: patent US9421204B2, “Oligomer modified diaromatic substituted compounds” (priority 2010, dated 2016)
